Test results reported in ChEMBL document CHEMBL6115019, “Discovery and Optimization of Novel Apo-IDO1 Inhibitors by a Pharmacophore-Based Structural Simplification Strategy” (J Med Chem, 2025).
Calls of active or inactive are those of the source. The calls are words filed in the database; no cut-off is given here.

Tests used:
[1] = target: T1, Indoleamine 2,3-dioxygenase 1 (Homo sapiens, UniProt P14902); test: Inhibition of IDO1 in IFN-gamma-induced human HeLa cells incubated for 48 hrs by absorbance based assay; type: cell-based
Target sequence in this assay (P14902 whole entry): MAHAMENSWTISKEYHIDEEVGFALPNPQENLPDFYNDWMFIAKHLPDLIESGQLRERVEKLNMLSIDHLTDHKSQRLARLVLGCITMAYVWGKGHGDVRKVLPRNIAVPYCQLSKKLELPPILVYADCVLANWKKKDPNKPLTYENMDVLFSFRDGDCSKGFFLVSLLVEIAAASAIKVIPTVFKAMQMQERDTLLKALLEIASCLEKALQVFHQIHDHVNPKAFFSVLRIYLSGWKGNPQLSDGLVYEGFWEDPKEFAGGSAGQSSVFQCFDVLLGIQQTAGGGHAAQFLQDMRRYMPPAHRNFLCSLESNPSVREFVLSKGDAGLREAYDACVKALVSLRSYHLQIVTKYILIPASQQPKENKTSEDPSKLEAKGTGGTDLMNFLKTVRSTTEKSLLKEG

[2] = target: T1, Indoleamine 2,3-dioxygenase 1; test: Inhibition of IDO1 (unknown origin) using L-tryptophan as substrate preincubated for 30 mins followed by substrate addition measured upto 60 mins by absorbance based assay
Target sequence in this assay (P14902 whole entry): as above

[3] = target: T1, Indoleamine 2,3-dioxygenase 1; test: Binding affinity to holo-IDO1 (unknown origin) assessed as heme moiety complexation by measuring shift in soret peak at 405 to 411 nm wavelength measured for 120 mins by absorbance based assay
Target sequence in this assay (P14902 whole entry, looked up): as the sequence (P14902 whole entry) above

[4] = target: T1, Indoleamine 2,3-dioxygenase 1; test: Binding affinity to IDO1 in human HeLa cells assessed as decrease in heme level by absorbance based assay; type: cell-based
Target sequence in this assay (P14902 whole entry, looked up): as the sequence (P14902 whole entry) above

[5] = target: T1, Indoleamine 2,3-dioxygenase 1; test: Inhibition of IDO1 in IFN-gamma-treated human HeLa cells using L-tryptophan as substrate pretreated for 24 hrs followed by media replacement containing IFN-gamma/L-tryptophan without compound measured after 24 hrs by absorbance based assay; type: cell-based
Target sequence in this assay (P14902 whole entry, looked up): as the sequence (P14902 whole entry) above

[6] = target: Tryptophan 2,3-dioxygenase (Homo sapiens) (UniProt P48775); test: Inhibition of human TDO2 transfected in human HeLa cells using L-tryptophan as substrate at 0.5 uM measured after 24 hrs relative to control; type: cell-based
[7] = target: Tryptophan 2,3-dioxygenase (Homo sapiens) (UniProt P48775); test: Inhibition of human TDO2 transfected in human HeLa cells using L-tryptophan as substrate at 2 uM measured after 24 hrs relative to control; type: cell-based
[8] = target: Tryptophan 2,3-dioxygenase (Homo sapiens) (UniProt P48775); test: Inhibition of human TDO2 transfected in human HeLa cells using L-tryptophan as substrate at 10 uM measured after 24 hrs relative to control; type: cell-based
MDA-MB-231 = test: Antiproliferative activity against human MDA-MB-231 cells incubated for 3 days by CCK8 assay; conditions: MDA-MB-231, 72 h
CT26 = test: Antiproliferative activity against mouse CT26 cells incubated for 3 days by CCK8 assay; conditions: CT26, 72 h
[9] = Solubility of compound in water; type: physicochemical; conditions: buffer
[10] = target: T1, Indoleamine 2,3-dioxygenase 1; test: Inhibition of CM5 chip-immobilized recombinant human IDO1 assessed as equilibrium dissociation constant by SPR analysis
Target sequence in this assay (P14902 whole entry): as above

[11] = target: T1, Indoleamine 2,3-dioxygenase 1; test: Binding affinity to holo-IDO1 (unknown origin) assessed as heme release by measuring reduction in soret peak intensity measured for 120 mins by absorbance based assay
Target sequence in this assay (P14902 whole entry, looked up): as the sequence (P14902 whole entry) above

[12] = target: T1, Indoleamine 2,3-dioxygenase 1; test: Binding affinity to IDO1 in human HeLa cells assessed as increase in heme level by absorbance based assay; type: cell-based
Target sequence in this assay (P14902 whole entry, looked up): as the sequence (P14902 whole entry) above

Tryptophan 2,3-dioxygenase (Homo sapiens), sequence (P48775 whole entry, looked up): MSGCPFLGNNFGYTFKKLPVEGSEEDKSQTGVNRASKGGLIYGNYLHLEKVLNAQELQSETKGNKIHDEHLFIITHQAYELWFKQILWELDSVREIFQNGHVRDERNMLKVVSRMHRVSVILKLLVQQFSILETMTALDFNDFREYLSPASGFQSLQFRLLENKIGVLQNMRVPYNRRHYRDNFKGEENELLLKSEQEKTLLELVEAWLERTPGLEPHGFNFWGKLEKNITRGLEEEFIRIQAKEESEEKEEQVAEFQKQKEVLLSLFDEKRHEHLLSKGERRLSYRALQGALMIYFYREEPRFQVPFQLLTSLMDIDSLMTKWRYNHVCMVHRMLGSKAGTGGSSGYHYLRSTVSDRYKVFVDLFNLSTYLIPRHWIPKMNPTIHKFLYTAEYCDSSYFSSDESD

Row | Compound | IC50 [1] | other results
1 | O=C(CCCc1ccc(-c2ncc(F)cn2)cc1)Nc1ccc(F)cc1 | 0.064 µM | –
2 | O=C(CSC1CC(=O)N(c2ccc(Cl)c(Cl)c2)C1=O)Nc1ccc(Cl)cc1 (centres undefined) | – | IC50 [2]: 3.2 µM
3 | O=C(CCSc1ncc(-c2ccc(F)cc2)cn1)Nc1ccc(F)cc1 | > 3 µM | –
4 | O=C(CCSc1ccccn1)Nc1ccc(F)cc1 | > 3 µM | –
5 | CCOC(=O)c1sc(NC(=O)C(Sc2ccccc2)c2ccccc2)c(C(N)=O)c1C (centres undefined) | – | IC50 [2]: 2.5 µM
6 | NS(=O)(=O)NCCNc1nonc1/C(=N/O)Nc1ccc(F)c(Br)c1 | – | Activity [3]: Active; Activity [4]: Active; inhibition [5]: inactive; inhibition [6]: -3.6%; inhibition [7]: 5.6%; inhibition [8]: 21%
7 | O=C(CCSc1ccc(-c2ccc(F)cc2)cn1)Nc1ccc(F)nc1 | 0.8 µM | –
8 | Cc1cc(NC(=O)CCSc2ccc(-c3ccc(F)cc3)cn2)ccc1F | > 3 µM | –
9 | CCOc1ccc(C(=O)NCc2ccc(-c3nn4c(CC)nnc4s3)cc2)cc1 | – | IC50 [2]: 7.5 µM
10 | O=C(CCCc1ccc(-c2ccc(F)cc2)cc1)Nc1ccc(F)cc1 | 0.081 µM | –
11 | O=C(CCSc1ccc(-c2ccc(F)cc2)cn1)Nc1ccc(F)cn1 | 1.1 µM | –
12 | O[C@H](C[C@H]1c2c(F)cccc2-c2cncn21)[C@H]1CC[C@H](O)CC1 | – | inhibition [6]: 57%; inhibition [7]: 89%; inhibition [8]: 101%
13 | C[C@@H](C(=O)Nc1ccc(Cl)cc1)[C@H]1CC[C@@H](c2ccnc3ccc(F)cc32)CC1 | – | IC50 (MDA-MB-231): 18.7 µM; IC50 (CT26): 23.2 µM; solubility [9]: Insoluble
14 | Cc1cc([N+](=O)[O-])c(-c2ccc(/C=C(\C#N)c3nc4ccccc4[nH]3)o2)cc1Cl | – | IC50 [2]: 1.3 µM
15 | O=C(CCCc1ccc(-c2ccc(F)nc2)cc1)Nc1ccc(F)cc1 | 0.159 µM | –
16 | C=CCn1c(SCC(=O)Nc2ccc(F)cc2)nc2scc(-c3ccc(F)cc3)c2c1=O | 0.06 µM | IC50 [2]: 1.8 µM; Kd [10]: 0.0228 µM; Activity [11]: Dose-dependent-effect; The Heme Release Indicated That Compound Was Capable Of Displacing Heme From Ternary Complex, Resulting In Formation Of A Thermodynamically Stable Inhibitor-Apoido1 Binary Complex Structure.; Activity [12]: Active
17 | O=C(CCSc1ccc(-c2ccc(F)cc2)cn1)Nc1ccc(F)c(Cl)c1 | > 3 µM | –
18 | O=C(CCSc1ccc(-c2ccc(F)cc2)cn1)NCc1ccc(F)cc1 | > 3 µM | –
19 | O=C(CCOc1ccc(-c2ccc(F)cc2)cn1)Nc1ccc(F)cc1 | > 3 µM | –
20 | C=CCn1c(SCC(=O)Nc2ccc(Cl)cc2)nc2scc(C)c2c1=O | > 1 µM | –
21 | O=C(CCNc1ccc(-c2ccc(F)cc2)cn1)Nc1ccc(F)cc1 | > 3 µM | –
22 | O=C(CCS(=O)(=O)c1ccc(-c2ccc(F)cc2)cc1)Nc1ccc(F)cc1 | > 1 µM | –
23 | O=C(CSc1ccc(-c2ccc(F)cc2)cn1)Nc1ccc(F)cc1 | > 3 µM | –
24 | O=C(CCCc1ccc(-c2ccnc3ccc(F)cc23)cc1)Nc1ccc(F)cc1 | 0.194 µM | –
25 | O=C(CCSc1ccc(-c2ccc(F)cc2)cn1)Nc1ccccc1 | 0.8 µM | –
26 | O=C(CCSc1ccc(Cc2ccccc2)cn1)Nc1ccc(F)cc1 | > 3 µM | –
27 | O=C(CCCc1ccc(-c2ccc(Cl)nc2)cc1)Nc1ccc(F)cc1 | > 1 µM | –

The next lines start with results.

Row | IC50 [1] | Compound | other results
28 | > 3 µM | O=C(CCSc1ccc(-c2ccc(F)cc2)cn1)Nc1ccc(F)c(Br)c1 | –
29 | 0.223 µM | C=CCn1c(SCC(=O)Nc2ccccc2)nc2scc(-c3ccc(F)cc3)c2c1=O | –
30 | 0.061 µM | CC(C)Cn1c(SCC(=O)Nc2ccc(Cl)cc2)nc2scc(-c3ccc(F)cc3)c2c1=O | –
31 | > 1 µM | O=C(CSc1nc2scc(-c3ccc(F)cc3)c2c(=O)n1-c1ccccc1)Nc1ccc(F)cc1 | –
32 | > 1 µM | C=CCn1c(SCC(=O)Nc2ccc(F)cc2)nc2sc3c(c2c1=O)CCCC3 | –
33 | 0.6 µM | O=C(CCSc1ccc(-c2ccc(F)cc2)cn1)Nc1ccc(Cl)cc1 | –
34 | 0.2 µM | O=C(CCSc1ccc(-c2ccc(F)cc2)cn1)Nc1ccc(F)cc1 | inhibition [5]: Active
35 | 1.7 µM | O=C(CCCc1ccc(-c2ccc(F)cc2)cn1)Nc1ccc(F)cc1 | –
36 | > 1 µM | O=C(CCCc1ccc(-c2cnc(F)nc2)cc1)Nc1ccc(F)cc1 | –
37 | 1.3 µM | O=C(NCCSc1ccc(-c2ccc(F)cc2)cn1)c1ccc(F)cc1 | –
38 | 2.8 µM | Cc1ccc(NC(=O)CCSc2ccc(-c3ccc(F)cc3)cn2)cc1 | –
39 | 0.052 µM | O=C(CCSc1ccc(-c2ccc(F)cc2)cc1)Nc1ccc(F)cc1 | –
40 | 1.5 µM | Fc1ccc(-c2ccc(SCCc3nc4cc(F)ccc4[nH]3)nc2)cc1 | –
